Measurements: patent publication US7629341B2, “Human ADAM-10 inhibitors” (Symphony Evolution, Inc., priority 2003, dated 2009)

Columns and labels:
[1] = target: MMP-13 (collagenase-3) (Homo sapiens, UniProt P45452); assay: In vitro metalloprotease inhibition, MMP-13; assay type: biochemical
[2] = target: T1, MMP-1 (Fibroblast collagenase) (Homo sapiens, UniProt P03956); assay: In vitro metalloprotease inhibition, MMP-1; assay type: biochemical
T1 sequence (P03956 100-469): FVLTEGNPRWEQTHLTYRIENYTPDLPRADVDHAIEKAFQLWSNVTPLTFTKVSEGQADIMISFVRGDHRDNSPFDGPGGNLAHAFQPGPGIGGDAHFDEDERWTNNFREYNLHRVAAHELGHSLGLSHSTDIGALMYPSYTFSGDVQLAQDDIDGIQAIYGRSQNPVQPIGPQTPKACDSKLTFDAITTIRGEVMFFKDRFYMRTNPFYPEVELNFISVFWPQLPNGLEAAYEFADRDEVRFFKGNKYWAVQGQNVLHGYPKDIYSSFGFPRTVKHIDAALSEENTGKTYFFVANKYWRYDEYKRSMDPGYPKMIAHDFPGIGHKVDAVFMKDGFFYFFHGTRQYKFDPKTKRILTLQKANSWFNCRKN
Description: (§1) Blank cells indicate lack of data only.

[3] = target: T2, MMP-2 (72 kDa gelatinase, gelatinase A) (Homo sapiens, UniProt P08253); assay: In vitro metalloprotease inhibition, MMP-2; assay type: biochemical
T2 sequence (P08253 110-660): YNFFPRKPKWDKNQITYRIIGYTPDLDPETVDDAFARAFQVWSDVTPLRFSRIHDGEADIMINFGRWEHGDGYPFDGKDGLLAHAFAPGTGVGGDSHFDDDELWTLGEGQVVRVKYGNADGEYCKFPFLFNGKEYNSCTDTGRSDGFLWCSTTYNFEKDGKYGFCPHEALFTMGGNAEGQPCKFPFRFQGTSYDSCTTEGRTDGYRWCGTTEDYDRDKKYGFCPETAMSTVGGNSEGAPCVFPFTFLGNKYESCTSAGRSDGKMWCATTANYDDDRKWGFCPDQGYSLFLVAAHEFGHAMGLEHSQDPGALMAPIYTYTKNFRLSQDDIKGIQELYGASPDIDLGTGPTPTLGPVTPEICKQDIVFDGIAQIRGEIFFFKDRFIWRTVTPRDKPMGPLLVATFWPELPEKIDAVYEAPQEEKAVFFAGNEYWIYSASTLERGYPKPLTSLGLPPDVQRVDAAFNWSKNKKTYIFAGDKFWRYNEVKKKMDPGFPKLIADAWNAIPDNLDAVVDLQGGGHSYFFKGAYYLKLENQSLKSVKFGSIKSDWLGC

[4] = target: MMP-3 (Stromelysin-1) (Homo sapiens, UniProt P08254); assay: In vitro metalloprotease inhibition, MMP-3; assay type: biochemical
Description: as §1

[5] = target: T3, ADAM-10 (UniProt O14672); assay: ADAM-10 enzyme assay, cleavage of a fluorogenic 10-residue peptide; assay type: biochemical, mouse or human (mADAM-10 or hADAM-10); details: in vitro;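 further: mouse or human ADAM-10 at 5 nM active enzyme, pH 8.0 HEPES buffer with CaCl2 and NP-40, compounds titrated 100 µM down to 0.5 nM, fluorescence read after 16 h at room temperature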
T3 sequence (O14672 1-748): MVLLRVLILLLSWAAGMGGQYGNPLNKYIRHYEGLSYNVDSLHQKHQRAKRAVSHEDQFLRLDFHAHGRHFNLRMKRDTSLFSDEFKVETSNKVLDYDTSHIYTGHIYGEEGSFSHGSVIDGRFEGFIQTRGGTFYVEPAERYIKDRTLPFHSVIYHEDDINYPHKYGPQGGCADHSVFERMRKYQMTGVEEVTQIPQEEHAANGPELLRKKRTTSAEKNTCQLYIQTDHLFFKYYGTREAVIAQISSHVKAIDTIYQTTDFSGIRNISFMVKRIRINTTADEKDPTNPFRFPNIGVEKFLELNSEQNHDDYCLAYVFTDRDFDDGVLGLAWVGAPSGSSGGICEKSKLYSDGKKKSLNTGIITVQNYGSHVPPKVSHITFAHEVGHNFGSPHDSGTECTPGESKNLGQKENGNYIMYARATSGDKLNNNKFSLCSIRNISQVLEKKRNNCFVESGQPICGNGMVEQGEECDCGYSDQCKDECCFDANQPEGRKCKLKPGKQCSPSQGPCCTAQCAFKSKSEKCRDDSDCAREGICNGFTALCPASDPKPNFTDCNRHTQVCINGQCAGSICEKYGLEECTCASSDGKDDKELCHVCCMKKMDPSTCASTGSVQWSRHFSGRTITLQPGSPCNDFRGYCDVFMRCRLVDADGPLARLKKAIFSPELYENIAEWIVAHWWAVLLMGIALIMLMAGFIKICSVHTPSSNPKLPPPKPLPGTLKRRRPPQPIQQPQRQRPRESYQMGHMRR
Description: mADAM-10 or hADAM-10 activity was measured as the ability to cleave a 10-residue peptide (DABCYL-Leu-Leu-Ala-Gln-Lys-*-LeuArg-Ser-Ser-Arg-EDANS). […] Enzyme was diluted to a final active concentration of 5 nM in Buffer A (50 mM HEPES 8.0, 100 mM NaCl, 1 mM CaCl2 and 0.01% NP-40). Serial dilutions for compounds were performed ranging from 100 μM to 0.5 nM using a Beckman Biomek 2000 in polypropylene plates (Greiner). […] This reaction was incubated for 16 hr at RT and fluorescence was read using identical conditions.

MMP-3 (Stromelysin-1), sequence (P08254 100-477, species assumed): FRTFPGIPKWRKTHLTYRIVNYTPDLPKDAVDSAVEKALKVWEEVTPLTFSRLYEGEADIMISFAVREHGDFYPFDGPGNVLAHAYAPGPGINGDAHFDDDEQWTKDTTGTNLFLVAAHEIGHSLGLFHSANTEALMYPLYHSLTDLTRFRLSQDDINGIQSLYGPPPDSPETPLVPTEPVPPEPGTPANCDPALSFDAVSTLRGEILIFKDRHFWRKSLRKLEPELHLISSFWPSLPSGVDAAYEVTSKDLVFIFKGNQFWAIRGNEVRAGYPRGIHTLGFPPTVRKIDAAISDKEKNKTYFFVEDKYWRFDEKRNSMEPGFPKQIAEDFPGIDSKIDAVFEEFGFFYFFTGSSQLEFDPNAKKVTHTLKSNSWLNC

SMILES | IC50 [1] | IC50 [2] | IC50 [3] | IC50 [4] | IC50 [5]
CC(C)(C)OC(=O)N1CCN(S(=O)(=O)c2cc(F)c(Oc3ccc(F)cc3)c(F)c2)[C@@H](C(=O)NO)C1 [Entry 9] | 1000 to 20000 nM | 1000 to 20000 nM | < 50 nM | 1000 to 20000 nM | < 50 nM
CN1CCN(CC(=O)N2CCN(S(=O)(=O)c3cc(F)c(Oc4ccc(Cl)cc4)c(F)c3)[C@@H](C(=O)NO)C2)CC1 [Entry 24] | < 50 nM | > 20000 nM | < 50 nM | 1000 to 20000 nM | < 50 nM
O=C(NO)[C@H]1CN(C(=O)OCCN2CCCCC2)CCN1S(=O)(=O)c1cc(F)c(Oc2ccc(Cl)cc2)c(F)c1 [Entry 27] | < 50 nM | 1000 to 20000 nM | < 50 nM | 50 to 1000 nM | < 50 nM
CCOC(=O)N1CCN(S(=O)(=O)c2cc(F)c(Oc3ccc(F)cc3)c(F)c2)[C@@H](C(=O)NO)C1 [Entry 13] | < 50 nM | 1000 to 20000 nM | < 50 nM | 50 to 1000 nM | < 50 nM
O=C(NO)[C@H]1CN(S(=O)(=O)c2cc(F)c(O)c(F)c2)CCN1S(=O)(=O)c1cc(F)c(Oc2ccc(Cl)cc2)c(F)c1 [Entry 41] | < 50 nM | 1000 to 20000 nM | < 50 nM | < 50 nM | < 50 nM
CS(=O)(=O)N1CCN(S(=O)(=O)c2cc(F)c(Oc3ccc(Cl)cc3)c(F)c2)[C@@H](C(=O)NO)C1 [Entry 28] | < 50 nM | 50 to 1000 nM | < 50 nM | 50 to 1000 nM | < 50 nM
O=C(NO)[C@H]1CN(C(=O)N2CCOCC2)CCN1S(=O)(=O)c1ccc(Oc2ccc(F)cc2)c(F)c1 [Entry 8] | < 50 nM | 50 to 1000 nM | < 50 nM | < 50 nM | < 50 nM
COCCOC(=O)N1CCN(S(=O)(=O)c2ccc(Oc3ccc(Cl)cc3)c(F)c2)[C@@H](C(=O)NO)C1 [Entry 4] | < 50 nM | 50 to 1000 nM | < 50 nM | < 50 nM | < 50 nM
COCCOC(=O)N1CCN(S(=O)(=O)c2ccc(Oc3ccc(F)cc3)c(F)c2)[C@@H](C(=O)NO)C1 [Entry 3] | < 50 nM | 50 to 1000 nM | < 50 nM | 1000 to 20000 nM | < 50 nM
O=C(NO)[C@H]1CN(S(=O)(=O)CCN2CCOCC2)CCN1S(=O)(=O)c1cc(F)c(Oc2ccc(Cl)cc2)c(F)c1 [Entry 57] | 50 to 1000 nM | > 20000 nM | 50 to 1000 nM | 1000 to 20000 nM | 50 to 1000 nM
CN(C)S(=O)(=O)N1CCN(S(=O)(=O)c2cc(F)c(Oc3ccc(Cl)cc3)c(F)c2)[C@@H](C(=O)NO)C1 [Entry 36] | < 50 nM | 1000 to 20000 nM | < 50 nM | 50 to 1000 nM | < 50 nM
O=C(NO)[C@H]1CN(C(=O)C(=O)N2CCCCC2)CCN1S(=O)(=O)c1cc(F)c(Oc2ccc(Cl)cc2)c(F)c1 [Entry 35] | < 50 nM | 1000 to 20000 nM | < 50 nM | 50 to 1000 nM | < 50 nM
N#Cc1ccc(Oc2ccc(S(=O)(=O)N3CCN(C(=O)N4CCOCC4)C[C@@H]3C(=O)NO)cc2F)cc1 [Entry 7] | < 50 nM | 50 to 1000 nM | < 50 nM | < 50 nM | < 50 nM
O=C(NO)[C@H]1CN(S(=O)(=O)CCN2CCCCC2)CCN1S(=O)(=O)c1cc(F)c(Oc2ccc(Cl)cc2)c(F)c1 [Entry 53] | < 50 nM | 50 to 1000 nM | < 50 nM | 50 to 1000 nM | < 50 nM
